This is an account of results in patent publication US9789089B2 (Gilead Sciences, Inc., priority 2013, dated 2017).

Where two headings read alike, the source gives them in different places.

One series concerns HIV-IIIb. Put plainly: Test A: Antiviral Assay in MT4 Cells. It is filed as cell-based, HIV-1. Conditions: read-out: % inhibition at 6 μM. The procedure:
Test A: Antiviral Assay in MT4 Cells
(§1) For the antiviral assay, 40 μL of 1× test concentration of 3-fold serially diluted compound in culture medium with 10% FBS was added to each well of a 384-well plate (10 concentrations) in quadruplicate. MT-4 cells were next mixed with HIV-IIIb at an m.o.i of 0.003 for 1 hour, after which time 35 μL of virus/cell mixture (2000 cells) was immediately added to each well containing 40 μL of diluted compound. The plates were then incubated at 37° C. for 5 days. After 5 days of incubation, 25 μl of 2× concentrated CellTiter-Glo™ Reagent (catalog #G7571, Promega Biosciences, Inc., Madison, Wis.) was added to each well containing MT-4 cells. Cell lysis was carried out by incubating at room temperature for 10 min and then chemiluminescence was read.

The nature of series [1]: Test B: Cytotoxicity assay. The class given is cell-based. The following applies: human, uninfected MT-4 cells, same protocol as Test A, CellTiter-Glo. The procedure: as §1
Test B:Cytotoxicity assay
Compound cytotoxicity and the corresponding CC50 values was determined using the same protocol as described in the antiviral assay (Test A) except that uninfected cells were used.
In general terms: Cellular ATP, detected with luciferase, serves as a proxy for viable cell number.

Where [2] appears, read: Human immunodeficiency virus 1, IIIB, MT4, 120 h.
Setting [3] is: Human immunodeficiency virus 1, MT4, 120 h, percent inhibition of virus-induced cell killing at 6 μM drug concentration, from the dose response curve, MT-4 cells infected with HIV-IIIb, 5 days.

One may read the inhibition as the relative decrease from the control value, in per cent. What is called CC50 is the concentration at which the toxic effect on the cells reaches its halfway point. For the compound `COc1ccc(-n2ccnc2[C@@H](Cc2cc(F)cc(F)c2)NC(=O)Cn2nc(C(F)(F)F)c3c2CCCC3)cc1` [Compound 6B, (R)—N-(2-(3,5-difluorophenyl)-1-(1-(4-methoxyphenyl)-1H-imidazol-2-yl)ethyl)-2-(3-(trifluoromethyl)-4,5,6,7-tetrahydro-1H-indazol-1-yl)acetamide], the inhibition at 6 µM with HIV-IIIb (setting [2]) is 4%. Besides, it took 12 µM to reach half-maximal cytotoxicity in series [1] (CC50 at 5 days).
On to `O=C(Cc1c[nH]c2ccc(O)nc12)NC(Cc1cc(F)cc(F)c1)c1cnc(-c2ccc(Cl)cc2)o1` (stereo not shown) [Compound 22, N-(1-(2-(4-chlorophenyl)oxazol-5-yl)-2-(3,5-difluorophenyl)ethyl)-2-(5-hydroxy-1H-pyrrolo[3,2-b]pyridin-3-yl)acetamide], for which the inhibition at 6 µM in the series on HIV-IIIb (setting [3]) amounted to 1%. In series [1], this compound yielded a CC50 at 5 days of 50.7 µM.
In turn, `Cc1cc2ncn(CC(=O)NC(Cc3cc(F)cc(F)c3)c3ncoc3-c3ccc(Cl)cc3)c2cc1C` (stereo not shown) [Compound 33H, N-(1-(5-(4-chlorophenyl)oxazol-4-yl)-2-(3,5-difluorophenyl)ethyl)-2-(5,6-dimethyl-1H-benzo[d]imidazol-1-yl)acetamide] registered a CC50 at 5 days in series [1] of 31.8 µM.
Take `Cc1cc2ncn(CC(=O)NC(Cc3cc(F)cc(F)c3)c3cnc(-c4ccc(Cl)cc4)o3)c2cc1C` (stereo not shown) [Compound 23, N-(1-(2-(4-chlorophenyl)oxazol-5-yl)-2-(3,5-difluorophenyl)ethyl)-2-(5,6-dimethyl-1H-benzo[d]imidazol-1-yl)acetamide]: the inhibition at 6 µM with HIV-IIIb (setting [2]) is 0%. Also, in series [1], the CC50 at 5 days stood at 12 µM.
The matching figures for `COc1ccc(-n2ccnc2[C@H](Cc2cc(F)cc(F)c2)NC(=O)Cn2nc(C(F)(F)F)c3c2CCCC3)cc1` [Compound 5F, (S)—N-(2-(3,5-difluorophenyl)-1-(1-(4-methoxyphenyl)-1H-imidazol-2-yl)ethyl)-2-(3-(trifluoromethyl)-4,5,6,7-tetrahydro-1H-indazol-1-yl)acetamide]: 79% and 13.5 µM.
The corresponding values for `O=C(Cn1nc(C(F)(F)F)c2c1CCCC2)NC(Cc1ccccc1)c1cnnn1-c1ccccc1` (stereo not shown) [Compound 9E, N-(2-phenyl-1-(1-phenyl-1H-1,2,3-triazol-5-yl)ethyl)-2-(3-(trifluoromethyl)-4,5,6,7-tetrahydro-1H-indazol-1-yl)acetamide] are 0% and 13.2 µM.
Take `O=C(Cc1c[nH]c2ccc(F)cc12)N[C@@H](Cc1cc(F)cc(F)c1)c1nocc1-c1ccc(Cl)cc1` [Compound 25I, (S)—N-(1-(4-(4-chlorophenyl)isoxazol-3-yl)-2-(3,5-difluorophenyl)ethyl)-2-(5-fluoro-1H-indol-3-yl)acetamide]: the inhibition at 6 µM in the series on HIV-IIIb (setting [3]) is 68%. The compound also gave a CC50 at 5 days in series [1] of 9.89 µM.
In the case of `Cn1cnc(C(Cc2cc(F)cc(F)c2)NC(=O)Cn2nc(C(F)(F)F)c3c2CCCC3)c1-c1ccc(Cl)cc1` (stereo not shown) [Compound 30, N-(1-(5-(4-chlorophenyl)-1-methyl-1H-imidazol-4-yl)-2-(3,5-difluorophenyl)ethyl)-2-(3-(trifluoromethyl)-4,5,6,7-tetrahydro-1H-indazol-1-yl)acetamide], the inhibition at 6 µM in the series with HIV-IIIb (setting [3]) was found to be 69%. Moreover, in series [1], the CC50 at 5 days came out at 11 µM.
As to `O=C(Cc1c[nH]c2ccc(O)cc12)N[C@H](Cc1cc(F)cc(F)c1)c1nocc1-c1ccc(Cl)cc1` [Compound 28B, (R)—N-(1-(4-(4-chlorophenyl)isoxazol-3-yl)-2-(3,5-difluorophenyl)ethyl)-2-(5-hydroxy-1H-indol-3-yl)acetamide], in the series on HIV-IIIb (setting [2]), the inhibition at 6 µM worked out at 3%.
In the case of `O=C(Cn1nc(C(F)(F)F)c2c1CCCC2)NC(Cc1cc(F)cc(F)c1)c1ncoc1-c1ccc(Cl)cc1` (stereo not shown) [Compound 36, N-(1-(5-(4-chlorophenyl)oxazol-4-yl)-2-(3,5-difluorophenyl)ethyl)-2-(3-(trifluoromethyl)-4,5,6,7-tetrahydro-1H-indazol-1-yl)acetamide], the inhibition at 6 µM in the series with HIV-IIIb (setting [2]) was determined as 0%. In series [1], this compound returned a CC50 at 5 days of 16.3 µM.
With `CC(C)CCn1ccnc1[C@H](Cc1ccccc1)NC(=O)Cn1nc(C(F)(F)F)c2c1CCCC2` [Compound 2, (S)—N-(1-(1-isopentyl-1H-imidazol-2-yl)-2-phenylethyl)-2-(3-(trifluoromethyl)-4,5,6,7-tetrahydro-1H-indazol-1-yl)acetamide], in the series on HIV-IIIb (setting [3]), the inhibition at 6 µM worked out at 6%. The compound further gave a CC50 at 5 days in series [1] of 27.8 µM.
The matching figures for `Cc1nc(-c2ccccc2)c(C(Cc2ccccc2)NC(=O)Cc2c[nH]c3ccc(O)cc23)s1` (stereo not shown) [Compound 15C, 2-(5-hydroxy-1H-indol-3-yl)-N-(1-(2-methyl-4-phenylthiazol-5-yl)-2-phenylethyl)acetamide]: 0% and 35 µM.
The corresponding values for `O=C(Cc1c[nH]c2ccc(O)cc12)NC(Cc1ccccc1)c1cnnn1-c1ccccc1` (stereo not shown) [Compound 12, 2-(5-hydroxy-1H-indol-3-yl)-N-(2-phenyl-1-(1-phenyl-1H-1,2,3-triazol-5-yl)ethyl)acetamide] are 4% and over 53 µM.
As for `O=C(Cn1nc(C(F)(F)F)c2c1CCCC2)N[C@@H](Cc1ccccc1)c1nccn1-c1ccccc1` [Compound 1E, (S)—N-(2-phenyl-1-(1-phenyl-1H-imidazol-2-yl)ethyl)-2-(3-(trifluoromethyl)-4,5,6,7-tetrahydro-1H-indazol-1-yl)acetamide], in the series with HIV-IIIb (setting [2]), the inhibition at 6 µM was found to be 83%. Besides, the CC50 at 5 days in series [1] came to 21.9 µM.
The corresponding values for `Cn1cnc(C(Cc2cc(F)cc(F)c2)NC(=O)Cc2c[nH]c3ccc(F)cc23)c1-c1ccc(Cl)cc1` (stereo not shown) [Compound 29G, N-(1-(5-(4-chlorophenyl)-1-methyl-1H-imidazol-4-yl)-2-(3,5-difluorophenyl)ethyl)-2-(5-fluoro-1H-indol-3-yl)acetamide] are 44% and 10.8 µM.
Turning to `O=C(Cc1c[nH]c2ccc(O)cc12)NC(Cc1cc(F)cc(F)c1)c1ncoc1-c1ccc(Cl)cc1` (stereo not shown) [Compound 34, N-(1-(5-(4-chlorophenyl)oxazol-4-yl)-2-(3,5-difluorophenyl)ethyl)-2-(5-hydroxy-1H-indol-3-yl)acetamide], in the series on HIV-IIIb (setting [3]), the inhibition at 6 µM came out at 0%. Half-maximal cytotoxicity in series [1] (CC50 at 5 days) was put at 22.1 µM.
The corresponding values for `O=C(Cn1nc(C(F)(F)F)c2c1CCCC2)N[C@@H](Cc1cc(F)cc(F)c1)c1nocc1-c1ccc(Cl)cc1` [Compound 27, (S)—N-(1-(4-(4-chlorophenyl)isoxazol-3-yl)-2-(3,5-difluorophenyl)ethyl)-2-(3-(trifluoromethyl)-4,5,6,7-tetrahydro-1H-indazol-1-yl)acetamide] are 28% and 6.17 µM.
For `O=C(Cc1c[nH]c2ccc(O)cc12)NC(Cc1cc(F)cc(F)c1)c1cnc(-c2ccc(Cl)cc2)o1` (stereo not shown) [Compound 24, N-(1-(2-(4-chlorophenyl)oxazol-5-yl)-2-(3,5-difluorophenyl)ethyl)-2-(5-hydroxy-1H-indol-3-yl)acetamide], the inhibition at 6 µM in the series with HIV-IIIb (setting [3]) was found to be 5%. In series [1], the CC50 at 5 days came to 13.6 µM.
As to `COc1ccc(-n2ccnc2[C@@H](Cc2cc(F)cc(F)c2)NC(=O)Cc2c[nH]c3ccc(O)cc23)cc1` [Compound 8, (R)—N-(2-(3,5-difluorophenyl)-1-(1-(4-methoxyphenyl)-1H-imidazol-2-yl)ethyl)-2-(5-hydroxy-1H-indol-3-yl)acetamide], the inhibition at 6 µM in the series with HIV-IIIb (setting [2]) was 6%.
As to `O=C(Cc1c[nH]c2ccc(O)nc12)NC(Cc1cc(F)cc(F)c1)c1ncoc1-c1ccc(Cl)cc1` (stereo not shown) [Compound 38, N-(1-(5-(4-chlorophenyl)oxazol-4-yl)-2-(3,5-difluorophenyl)ethyl)-2-(5-hydroxy-1H-pyrrolo[3,2-b]pyridin-3-yl)acetamide], in the series on HIV-IIIb (setting [3]), the inhibition at 6 µM amounted to 0%. The same compound displayed a CC50 at 5 days in series [1] of 19.1 µM.
Regarding `O=C(Cc1c[nH]c2ccc(F)cc12)N[C@@H](Cc1ccccc1)c1nc(-c2ccccc2)no1` [Compound 18B, (S)-2-(5-fluoro-1H-indol-3-yl)-N-(2-phenyl-1-(3-phenyl-1,2,4-oxadiazol-5-yl)ethyl)acetamide], the inhibition at 6 µM with HIV-IIIb (setting [2]) came to 4%. Besides, the CC50 at 5 days in series [1] was over 53 µM.
Consider `COc1ccc(-n2ccnc2[C@H](Cc2cc(F)cc(F)c2)NC(=O)Cc2c[nH]c3ccc(O)cc23)cc1` [Compound 7, (S)—N-(2-(3,5-difluorophenyl)-1-(1-(4-methoxyphenyl)-1H-imidazol-2-yl)ethyl)-2-(5-hydroxy-1H-indol-3-yl)acetamide], for which the inhibition at 6 µM with HIV-IIIb (setting [2]) was determined as 121%.
The same measure, in the same setting: the value for `Cc1ccccc1-c1scnc1C(Cc1cc(F)cc(F)c1)NC(=O)Cc1c[nH]c2ccc(O)cc12` (stereo not shown) [Compound 13E, N-(2-(3,5-difluorophenyl)-1-(5-(o-tolyl)thiazol-4-yl)ethyl)-2-(5-hydroxy-1H-indol-3-yl)acetamide] was 93%; that for `O=C(Cc1c[nH]c2ccc(O)cc12)N[C@@H](Cc1cc(F)cc(F)c1)c1nocc1-c1ccc(Cl)cc1` [Compound 26, (S)—N-(1-(4-(4-chlorophenyl)isoxazol-3-yl)-2-(3,5-difluorophenyl)ethyl)-2-(5-hydroxy-1H-indol-3-yl)acetamide] was 106%.
The same measure, in the same setting: to `Cn1cnc(C(Cc2cc(F)cc(F)c2)NC(=O)Cc2c[nH]c3ccc(O)cc23)c1-c1ccc(Cl)cc1` (stereo not shown) [Compound 31, N-(1-(5-(4-chlorophenyl)-1-methyl-1H-imidazol-4-yl)-2-(3,5-difluorophenyl)ethyl)-2-(5-hydroxy-1H-indol-3-yl)acetamide] belongs 75%.
